Data reported in US20160150792A1, “WATER PURIFICATION COMPOSITIONS AND APPLICATIONS FOR SAME” (priority 2011, published 2016).

Test system: mixture of E. coli and P. aeruginosa
Assay: Disinfection of contaminated surgical instruments and objects
Assay type: cell-based, E. coli (ATCC 11229) and P. aeruginosa (ATCC 15442)
Conditions: immersion 30 minutes; instruments contaminated with 7.0×10^9 bacteria
Experimental: Cultures: E. coli (ATCC11229) and P. aeruginosa (ATCC15442) from the American Type Culture Collection (ATCC) were grown in Tryptic Soy Broth (TSB) according to the instructions provided by ATCC.
Sterile surgical instruments (probes, scalpel handles, and forceps) and other objects were inoculated with 20 μL of the concentrated culture and allowed to dry for 30 minutes in a laminar flow hood. Contaminated surgical instruments were treated with SAFI (various copper or copper/zinc mixes at pH 3.2 or pH 0.2) by immersing the objects in 40 mL sterile water containing 1, 10, or 100 ppm SAFI for time periods of 30 minutes −22 hours. Comparison treatments included no treatment (control), boiling the instruments in water for 30 minutes, immersing the instruments in 40 mL of 70% EtOH for 30 minutes, or autoclaving the instruments at 15 lbs/in^2 at 121° C. for 20 minutes. […]
The ability of a solution of SAFI to disinfect contaminated surgical instruments was determined by contaminating forceps, scalpel handles, and probes with 20 uL of a concentrated mixture of E. coli and P. aeruginosa and incubating the contaminated instruments in a SAFI solution for 30 minutes. […] Bacteria present after overnight incubation were determined by standard plate counts. […]

CCO [70% ethanol, ethanol]
effectiveness in killing bacteria (comparison treatment): effective in killing bacteria
